Experimental data from US8481459B2, “Chemical inhibitors of ethylene biosynthesis” (Academia Sinica, priority 2010, dated 2013).

Tested on: gene expression in etiolated eto1-4 seedlings
Assay: Transcriptional profiling (ATH1 GeneChip microarray) of etiolated eto1-4 seedlings
Type: in vivo, Arabidopsis thaliana
Experimental: For chemical treatments, seeds were sown on 0.5×MS agar medium supplemented with 10 μM chemicals (AVG, compounds 9393, 9370, and 7303) or DMSO (as control). Arabidopsis seeds were stratified in the dark at 4° C. for 4 days, then germinated in the dark for 3 days at 22° C. Approximately 2,000 etiolated seedlings of the wild type or eto1-4 were used to collect tissues for preparation of total RNA in each microarray experiment with Arabidopsis ATH1 GeneChip (Affymetrix). Extraction of RNA followed an established protocol (Chang, et al. (1993) Plant Mol. Biol. Rep. 11, 113-117). Total RNA (10 μg) was used to prepare biotinylated cRNA for hybridization to ATH1 GeneChip in the experiments disclosed herein. Experiments were repeated by 2 independent biological duplicates, and candidate genes present in both experiments were selected for further analysis. The MASS method was used for data analysis and normalization by all sample medium. Candidate genes were selected by the following criteria. First, genes with 1.5-fold differential expression between the wild type and eto1-4 were selected as the master gene pool, which was then used for comparison in treatments with AVG and individual exemplary compounds. Data were presented in hierarchical clustering and Venn diagram format. Agilent GeneSpring GX and Bioconductor software were used to analyze the expression profile data. Gene Ontology descriptions were generated by GeneSpring GX and further referred to the TAR GO database. Raw data are available in the GEO database (http://www.ncbi.nlm.nih.gov/geo) with Accession no. GSE20897.
The filtered and normalized expression data set from 22810 probes on the ATH1 Genechip was used for hierarchical clustering of gene expression profiles for comparison between AVG and the exemplary invention compounds in eto1-4. It was identified that 1,446 genes show at least 1.5-fold difference in expression between the WT and eto1-4 and used them as the master gene pool for clustering analysis (FIG. 7A). […] These genes likely contribute to the etiolated phenotype of eto1-4 by responding to elevated endogenous ethylene. To determine whether the exemplary compounds have specific r overlapping functions with AVG to suppress the eto1-4 phenotype, genes that are regulated by individual exemplary invention compounds and AVG for Venn diagram analysis were clustered (FIG. 7B). More than 63% of genes (356/561 for compound 9393; 389/561 for compound 9370; 399/561 for compound 7303; FIG. 7B) with expression associated with AVG were co-regulated by the exemplary invention compounds, which indicates an overlap function in suppression of the ethylene phenotype in eto1-4. […] Next genes co-regulated by all of the exemplary invention compounds and AVG were examined by performing a clustering analysis using the co-regulated genes identified in FIG. 7B: 356 (compound 9393 vs AVG), 389 (compound 9370 vs AVG) and 399 genes (compound 7303 vs AVG). It was uncovered that 276 genes were co-regulated by all of the exemplary invention compounds and AVG (FIG. 7C and Table 2). On the basis of GO descriptions generated by Gene Spring GX and TAIR database, the 276 genes were divided into subgroups related to their biological functions (Table 2). […] In addition, stress- and pathogenesis-related genes were among the co-regulated genes, possibly because ethylene is involved in both biotic and abiotic stresses.
Genes (1446 non-redundant loci) were selected by 1.5-fold differential expression between eto1-4 and WT as the master pool for analysis. These genes were used for comparison between chemical treatments by AVG and the exemplary invention compounds. The finalized 276 genes that are co-regulated by AVG and all of the exemplary invention compounds are shown. Locus ID also present in Nemhauser et al. (Nemhauser, et al. (2006) Cell 126, 467-475).

[1] = of 1446 genes differentially expressed between WT and eto1-4, 10 μM
[2] = ratio eto1-4 treated to eto1-4 (no treatment)

## COc1ccc(C2CC(=O)c3cnc(Nc4ccccc4)nc3C2)cc1 (centres unmarked) [Compound 7303]
Of 561 genes associated with AVG, 10 μM
  number of genes co-regulated with AVG: 399 genes
[1]
  number of genes regulated (expression reverted close to WT): 650 genes
  percentage of genes regulated (expression reverted close to WT): 45.0%
Of all genes regulated by the compound (629, 728, 650), 10 μM
  number of genes regulated specifically, not related to AVG treatment: 251 genes
[2]
  Signal Fold Change AT1G03457, unknown biological function: 3.04
  Signal Fold Change AT1G03660, unknown biological function: 1.59
  Signal Fold Change AT1G05010 ACC oxidase: 0.30
  Signal Fold Change AT1G05760 jacalin lectin protein: 3.70
  Signal Fold Change AT1G06720 expressed protein: 1.26
  Signal Fold Change AT1G07280, unknown biological function: 0.37
  Signal Fold Change AT1G07560 leucine-rich repeat protein kinase: 1.99
  Signal Fold Change AT1G08650 phosphoenolpyruvate carboxylase kinase: 3.40
  Signal Fold Change AT1G08990 glycogenin glucosyltransferase: 2.60
  Signal Fold Change AT1G09530 phytochrome interacting factor 3: 0.29
  Signal Fold Change AT1G10760 starch excess protein (SEX1): 0.43
  Signal Fold Change AT1G13430, response to cytokinin stimulus, sulfotransferase protein: 0.34
  Signal Fold Change AT1G14540 anionic peroxidase: 0.42
  Signal Fold Change AT1G15380 lactoylglutathione lyase: 2.99
  Signal Fold Change AT1G17970, unknown biological function: 2.35
  Signal Fold Change AT1G18880 proton-dependent oligopeptide transport (POT) protein: 2.51
  Signal Fold Change AT1G20190, cell wall organization and biogenesis, expansin (EXP11): 0.43
  Signal Fold Change AT1G22740 Ras-related protein (RAB7): 3.52
  Signal Fold Change AT1G23060, unknown biological function: 0.35
  Signal Fold Change AT1G26930, unknown biological function: 0.40
  Signal Fold Change AT1G27380 p21-rho-binding domain-containing protein: 2.14
  Signal Fold Change AT1G29520, unknown biological function: 2.27
  Signal Fold Change AT1G30750, unknown biological function: 2.87
  Signal Fold Change AT1G31710 copper amine oxidase: 5.43
  Signal Fold Change AT1G32410 vacuolar protein sorting 55 protein: 1.75
  Signal Fold Change AT1G32560 late embryogenesis abundant group 1 domain-containing protein: 1.89
  Signal Fold Change AT1G33470, unknown biological function: 2.38
  Signal Fold Change AT1G33790, unknown biological function: 0.21
  Signal Fold Change AT1G34040, unknown biological function: 2.17
  Signal Fold Change AT1G35350, unknown biological function: 4.37
  Signal Fold Change AT1G35612, unknown biological function: 3.19
  Signal Fold Change AT1G42470, unknown biological function: 4.79
  Signal Fold Change AT1G44800, unknown biological function: 2.25
  Signal Fold Change AT1G44830 AP2-containing transcription factor: 0.38
  Signal Fold Change AT1G48480 leucine-rich repeat trans-membrane protein kinase: 3.43
  Signal Fold Change AT1G49660 expressed protein: 0.47
  Signal Fold Change AT1G50560 cytochrome P450: 2.50
  Signal Fold Change AT1G52830 auxin-responsive protein: 4.43
  Signal Fold Change AT1G56010 transcription activator NAC1: 2.97
  Signal Fold Change AT1G56020, unknown biological function: 0.49
  Signal Fold Change AT1G58070, unknown biological function: 2.37
  Signal Fold Change AT1G59590, unknown biological function: 3.94
  Signal Fold Change AT1G59740 proton-dependent oligopeptide transport (POT) protein: 0.32
  Signal Fold Change AT1G62290 aspartyl protease protein: 0.38
  Signal Fold Change AT1G62510 lipid transfer protein: 2.20
  Signal Fold Change AT1G62620, unknown biological function: 3.52
  Signal Fold Change AT1G64200 V-ATPase E subunit: 2.73
  Signal Fold Change AT1G65510, unknown biological function: 4.19
  Signal Fold Change AT1G65920, unknown biological function: 0.36
  Signal Fold Change AT1G66230 myb transcription factor (MYB20): 3.14
  Signal Fold Change AT1G67030 zinc finger (C2H2 type) protein: 10.77
  Signal Fold Change AT1G68230, unknown biological function: 2.59
  Signal Fold Change AT1G68520 zinc finger (B-box type) protein: 1.15
  Signal Fold Change AT1G69570 Dof-type zinc finger-containing protein: 6.31
  Signal Fold Change AT1G70210 cyclin delta-1: 3.72
  Signal Fold Change AT1G70850 Bet v I allergen protein: 22.18
  Signal Fold Change AT1G70890 major latex protein: 5.05
  Signal Fold Change AT1G71030 myb transcription factor (MYB2): 8.09
  Signal Fold Change AT1G71740, unknown biological function: 3.04
  Signal Fold Change AT1G72230 plastocyanin like protein: 2.98
  Signal Fold Change AT1G73220 sugar transporter protein: 5.76
  Signal Fold Change AT1G73300 serine carboxypeptidase S10 protein: 1.69
  Signal Fold Change AT1G73310 serine carboxypeptidase S10 protein: 4.07
  Signal Fold Change AT1G73330 protease inhibitor: 31.27
  Signal Fold Change AT1G73590 auxin efflux carrier protein: 2.03
  Signal Fold Change AT1G73640, small GTPase mediated signal transduction, Ras-related GTP-binding protein: 2.12
  Signal Fold Change AT1G73830 bHLH protein: 0.20
  Signal Fold Change AT1G75500, unknown biological function: 3.18
  Signal Fold Change AT1G76220, unknown biological function: 4.28
  Signal Fold Change AT1G76500, photomorphogenesis, DNA-binding protein: 0.38
  Signal Fold Change AT1G76540 cell division control protein: 2.97
  Signal Fold Change AT1G76790, unknown biological function: 3.71
  Signal Fold Change AT1G78240 dehydration-responsive protein: 0.54
  Signal Fold Change AT1G80380 phosphoribulokinase: 2.20
  Signal Fold Change AT2G01910, microtubule nucleation, microtubule associated protein (MAP65/ASE1) protein: 2.92
  Signal Fold Change AT2G02820 myb transcription factor (MYB88): 4.90
  Signal Fold Change AT2G02850 plantacyanin: 0.15
  Signal Fold Change AT2G16580 auxin-responsive protein: 2.29
  Signal Fold Change AT2G16990, unknown biological function: 3.14
  Signal Fold Change AT2G19590 ACC oxidase: 0.28
  Signal Fold Change AT2G19970, unknown biological function: 3.39
  Signal Fold Change AT2G20080, unknown biological function: 5.75
  Signal Fold Change AT2G20670, unknown biological function: 4.29
  Signal Fold Change AT2G21820, unknown biological function: 1.33
  Signal Fold Change AT2G21880 Ras-related GTP-binding protein: 4.62
  Signal Fold Change AT2G22860 phytosulfokines 2 (PSK2): 2.10
  Signal Fold Change AT2G24150 expressed protein (response to hormone stimulus): 1.90
  Signal Fold Change AT2G25900 zinc finger (CCCH-type) protein: 1.73
  Signal Fold Change AT2G26070 expressed protein (response to ethylene stimulus): 0.28
  Signal Fold Change AT2G26440 pectinesterase protein: 0.27
  Signal Fold Change AT2G26740 epoxide hydrolase: 0.26
  Signal Fold Change AT2G27140 heat shock protein: 2.74
  Signal Fold Change AT2G27370, unknown biological function: 2.51
  Signal Fold Change AT2G28305, unknown biological function: 2.57
  Signal Fold Change AT2G28410, unknown biological function: 2.79
  Signal Fold Change AT2G29340 short-chain dehydrogenase: 0.39
  Signal Fold Change AT2G29440, toxin catabolic process, glutathione S-transferase: 0.26
  Signal Fold Change AT2G30360 CBL-interacting protein kinase 11 (CIPK11): 3.63
  Signal Fold Change AT2G33380 calcium-binding RD20 protein: 0.22
  Signal Fold Change AT2G33990, unknown biological function: 2.69
  Signal Fold Change AT2G34300, unknown biological function: 0.39
  Signal Fold Change AT2G34500 cytochrome P450: 8.32
  Signal Fold Change AT2G34510, unknown biological function: 2.21
  Signal Fold Change AT2G34700, unknown biological function: 0.31
  Signal Fold Change AT2G35300 late embryogenesis abundant group 1 domain-containing protein: 2.86
  Signal Fold Change AT2G35710 glycogenin glucosyltransferase: 2.25
  Signal Fold Change AT2G36350 protein kinase: 0.54
  Signal Fold Change AT2G36410, unknown biological function: 3.05
  Signal Fold Change AT2G37130 peroxidase 21: 2.23
  Signal Fold Change AT2G38760, unknown biological function: 5.36
  Signal Fold Change AT2G38790, unknown biological function: 3.21
  Signal Fold Change AT2G39010 aquaporin: 1.95
  Signal Fold Change AT2G39310, unknown biological function: 3.40
  Signal Fold Change AT2G39980, unknown biological function: 0.25
  Signal Fold Change AT2G40420 amino acid transporter: 3.56
  Signal Fold Change AT2G41090, unknown biological function: 0.11
  Signal Fold Change AT2G41230, unknown biological function: 0.05
  Signal Fold Change AT2G42320, unknown biological function: 0.54
  Signal Fold Change AT2G43050 pectinesterase protein: 3.42
  Signal Fold Change AT2G43535 trypsin inhibitor: 6.32
  Signal Fold Change AT2G44110 seven transmembrane MLO protein: 0.43
  Signal Fold Change AT2G44130 kelch repeat containing F-box protein: 4.62
  Signal Fold Change AT2G47510 fumarate hydratase: 0.48
  Signal Fold Change AT2G47550 pectinesterase protein: 0.49
  Signal Fold Change AT2G48030, unknown biological function: 2.22
  Signal Fold Change AT3G04010 glycosyl hydrolase: 3.80
  Signal Fold Change AT3G05990, signal transduction, phosphodiesterase leucine-rich repeat protein: 2.33
  Signal Fold Change AT3G09020, unknown biological function: 3.42
  Signal Fold Change AT3G09780 protein kinase: 0.40
  Signal Fold Change AT3G10080, unknown biological function: 2.14
  Signal Fold Change AT3G10340 phenylalanine ammonia-lyase: 2.63
  Signal Fold Change AT3G11550, unknown biological function: 2.97
  Signal Fold Change AT3G12030, DNA repair, expressed protein: 2.06
  Signal Fold Change AT3G12500 basic endocexemplary inase: 3.58
  Signal Fold Change AT3G13980, unknown biological function: 6.58
  Signal Fold Change AT3G14370 protein kinase: 0.36
